We go through 20 compounds from patent US9669034B2, “4-aryl-N-phenyl-1,3,5-triazin-2-amines containing a sulfoximine group” (BAYER INTELLECTUAL PROPERTY GMBH, priority 2011, dated 2017).

Each structure is given as a SMILES string. Where two headings read alike, the source gives them in different places.

One experiment has as its target CDK2/CycE (Homo sapiens (Human), UniProt P24941). As to the kind of experiment: CDK2/CycE kinase assay (TR-FRET). Format: biochemical. The settings on record: Method 2. The text has this: 2. CDK2/CycE Kinase Assay:
CDK2/CycE—inhibitory activity of compounds of the present invention was quantified employing the CDK2/CycE TR-FRET assay as described in the following paragraphs:
Recombinant fusion proteins of GST and human CDK2 and of GST and human CycE, expressed in insect cells (Sf9) and purified by Glutathion-Sepharose affinity chromatography, were purchased from ProQinase GmbH (Freiburg, Germany). As substrate for the kinase reaction biotinylated peptide biotin-Ttds-[…]
A general note: In TR-FRET formats the signal depends on donor and acceptor labels being close together.

Experiment [1] concerns HeLa human cervical tumour cells. The experiment in a line: Proliferation assay (crystal violet), HeLa. Format: cell-based. The settings on record: Method 3, read-out: Inhibition of HeLa cell proliferation, IC50. The protocol: Cultivated tumour cells (NCI-H460, human non-small cell lung carcinoma cells, ATCC HTB-177; DU145, hormone-independent human prostate carcinoma cells, ATCC HTB-81; HeLa-MaTu, human cervical carcinoma cells, EPO-GmbH, Berlin; HeLa-MaTu-ADR, multidrug-resistant human cervical carcinoma cells, EPO-GmbH, Berlin; HeLa human cervical tumour cells, ATCC CCL-2; Caco-2 human colorectal carcinoma, ATCC HTB-37; B16F10 mouse melanoma cells, ATCC CRL-6475) were plated at a density of 5000 cells/well (DU145, HeLa-MaTu-ADR), 3000 cells/well (NCI-H460, HeLa-MaTu, HeLa), 1500 cells/well (Caco-2), or 1000 cells/well (B16 F10) in a 96-well multititer plate in 200 μL of their respective growth medium supplemented 10% fetal calf serum. After 24 hours, the cells of one plate (zero-point plate) were stained with crystal violet (see below), while the medium of the other plates was replaced by fresh culture medium (200 μL), to which the test substances were added in various concentrations (0 M, as well as in the range of […]; the final concentration of the solvent dimethylsulfoxide was 0.5%). The cells were incubated for 4 days in the presence of test substances. Cell proliferation was determined by staining the cells with crystal violet: the cells were fixed by adding 20 μL/measuring point of an 11% glutaric aldehyde solution for 15 minutes at room temperature. After three washing cycles of the fixed cells with water, the plates were dried at room temperature. The cells were stained by adding 100 μL/measuring point of a 0.1% crystal violet solution (pH 3.0). After three washing cycles of the stained cells with water, the plates were dried at room temperature. The dye was dissolved by adding 100 μL/measuring point of a 10% acetic acid solution. The absorbance was determined by photometry at a wavelength of 595 nm. The change of cell number, in percent, was calculated by normalization of the measured values to the absorbance values of the zero-point plate (=0%) and the absorbance of the untreated (0 M) cells (=100%). The IC50 values were determined by means of a 4 parameter fit.

The target of another experiment is CDK9/CycT1 (Homo sapiens (Human), UniProt P50750). As to the kind of experiment: CDK9/CycT1 kinase assay (TR-FRET). The settings on record: Method 1. Format: biochemical. The source says:
1. CDK9/CycT1 Kinase Assay:
CDK9/CycT1—inhibitory activity of compounds of the present invention was quantified employing the CDK9/CycT1 TR-FRET assay as described in the following paragraphs:
Recombinant full-length His-tagged human CDK9 and CycT1, expressed in insect cells and purified by Ni-NTA affinity chromatography, were purchased from Invitrogen (Cat. No PV4131). As substrate for the kinase reaction biotinylated peptide biotin-Ttds-[…]

CDK9/CycT1, sequence (P50750 whole entry): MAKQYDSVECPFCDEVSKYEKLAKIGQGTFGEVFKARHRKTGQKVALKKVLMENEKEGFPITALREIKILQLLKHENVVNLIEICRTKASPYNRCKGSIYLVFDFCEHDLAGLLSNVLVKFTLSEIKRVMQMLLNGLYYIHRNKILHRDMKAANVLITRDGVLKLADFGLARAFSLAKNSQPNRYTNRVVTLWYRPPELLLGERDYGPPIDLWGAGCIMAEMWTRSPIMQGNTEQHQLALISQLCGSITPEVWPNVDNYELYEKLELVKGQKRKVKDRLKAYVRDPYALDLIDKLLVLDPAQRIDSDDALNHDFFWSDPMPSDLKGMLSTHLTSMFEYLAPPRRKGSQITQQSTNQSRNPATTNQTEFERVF
CDK9/CycT1, sequence (O60563 whole entry partner): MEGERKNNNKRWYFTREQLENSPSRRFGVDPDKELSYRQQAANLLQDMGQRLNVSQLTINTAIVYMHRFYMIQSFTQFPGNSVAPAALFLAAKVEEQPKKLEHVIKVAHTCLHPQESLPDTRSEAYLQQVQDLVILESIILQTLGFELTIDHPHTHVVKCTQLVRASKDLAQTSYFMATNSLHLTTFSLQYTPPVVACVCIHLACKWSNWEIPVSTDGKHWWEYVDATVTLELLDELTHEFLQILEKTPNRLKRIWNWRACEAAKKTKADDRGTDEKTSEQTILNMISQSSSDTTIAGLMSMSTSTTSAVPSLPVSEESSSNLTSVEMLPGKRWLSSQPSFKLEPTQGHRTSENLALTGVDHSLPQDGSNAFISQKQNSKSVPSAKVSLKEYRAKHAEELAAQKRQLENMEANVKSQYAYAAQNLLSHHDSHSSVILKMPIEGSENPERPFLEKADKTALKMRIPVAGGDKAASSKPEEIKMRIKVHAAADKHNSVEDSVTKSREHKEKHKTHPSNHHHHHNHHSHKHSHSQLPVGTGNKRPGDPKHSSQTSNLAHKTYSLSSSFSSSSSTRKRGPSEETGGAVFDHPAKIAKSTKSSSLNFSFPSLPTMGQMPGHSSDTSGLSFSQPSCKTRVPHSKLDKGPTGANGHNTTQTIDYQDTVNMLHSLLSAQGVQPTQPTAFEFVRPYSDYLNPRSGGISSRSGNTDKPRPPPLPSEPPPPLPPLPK

`CS(=N)(=O)Cc1cccc(Nc2ncnc(-c3cccc4c3OCCC4)n2)c1` (racemic) [Example 30, (rac)-4-(3,4-Dihydro-2H-chromen-8-yl)-N-{3-[(S-methylsulfonimidoyl)methyl]phenyl}-1,3,5-triazin-2-amine]: the IC50 at CDK2/CycE was 940 nM; in experiment [1] (Homo sapiens, HeLa), 1200 nM.
For the compound `CCS(=N)(=O)Cc1cccc(Nc2ncnc(-c3ccc(F)cc3OC)n2)c1` (racemic) [Example 108, (rac)-N-{3-[(S-ethylsulfonimidoyl)methyl]phenyl}-4-(4-fluoro-2-methoxyphenyl)-1,3,5-triazin-2-amine], the IC50 turned out to be 1000 nM on CDK2/CycE; 1000 nM in experiment [1] (Homo sapiens, HeLa); 8 nM on CDK9/CycT1.
For the compound `CS(=N)(=O)Cc1cccc(Nc2ncnc(-c3ccc(F)cc3OCc3ccon3)n2)c1` (racemic) [Example 93, (rac)-4-[4-Fluoro-2-(1,2-oxazol-3-ylmethoxy)phenyl]-N-{3-[(S-methylsulfonimidoyl)methyl]phenyl}-1,3,5-triazin-2-amine], the IC50 against CDK2/CycE was 2000 nM; in experiment [1] (Homo sapiens, HeLa) it was 680 nM; against CDK9/CycT1 it was 7 nM.
For `CS(=N)(=O)Cc1cccc(Nc2ncnc(-c3ccc(F)cc3OCc3ccc(C(F)(F)F)cc3)n2)c1` (racemic) [Example 86, (rac)-4-(4-Fluoro-2-{[4-(trifluoromethyl)benzyl]oxy}phenyl)-N-{3-[(S-methylsulfonimidoyl)methyl]phenyl}-1,3,5-triazin-2-amine] the same measures were 1400 nM, 1100 nM and 8 nM.
As for `COc1cc(F)ccc1-c1ncnc(Nc2ccc(Cl)c(CS(C)(=N)=O)c2)n1` (single isomer, unassigned) [Example 59.b, N-{4-Chloro-3-[(S-methylsulfonimidoyl)methyl]phenyl}-4-(4-fluoro-2-methoxyphenyl)-1,3,5-triazin-2-amine], the figures for the IC50 (against CDK2/CycE; in experiment [1]; on CDK9/CycT1) were 1800 nM, 1100 nM and 33 nM, respectively.
As for `CS(=N)(=O)Cc1cccc(Nc2ncnc(-c3ccc(F)cc3OCCC3CC3)n2)c1` (racemic) [Example 76, (rac)-4-[2-(2-Cyclopropylethoxy)-4-fluorophenyl]-N-{3-[(S-methylsulfonimidoyl)methyl]phenyl}-1,3,5-triazin-2-amine], the IC50 at CDK2/CycE turned out to be 3200 nM; in experiment [1] (Homo sapiens, HeLa), 1100 nM; on CDK9/CycT1, 30 nM.
For the compound `COc1cc(F)ccc1-c1ncnc(Nc2cccc(CS(C)(=O)=NS(C)(=O)=O)c2)n1` (racemic) [Example 44, (rac)-N-[(3-{[4-(4-Fluoro-2-methoxyphenyl)-1,3,5-triazin-2-yl]amino}benzyl)(methyl)oxido-λ^6-sulfanylidene]methanesulfonamide], the IC50 against CDK2/CycE came to 1800 nM; in experiment [1] (Homo sapiens, HeLa), 1000 nM; against CDK9/CycT1, 20 nM.
As to `CS(=N)(=O)Cc1cccc(Nc2ncnc(-c3ccc(F)cc3OCc3ccc(F)c(Cl)c3)n2)c1` (racemic) [Example 97, (rac)-4-{2-[(3-Chloro-4-fluorobenzyl)oxy]-4-fluorophenyl}-N-{3-[(S-methylsulfonimidoyl)methyl]phenyl}-1,3,5-triazin-2-amine], the IC50 at CDK2/CycE is 200 nM; in experiment [1] (Homo sapiens, HeLa) it was 940 nM; at CDK9/CycT1, 3 nM.
For `CS(=N)(=O)Cc1cccc(Nc2ncnc(-c3ccc(F)cc3OCc3cncs3)n2)c1` (racemic) [Example 81, (rac)-4-[4-Fluoro-2-(1,3-thiazol-5-ylmethoxy)phenyl]-N-{3-[(S-methylsulfonimidoyl)methyl]phenyl}-1,3,5-triazin-2-amine] the same measures were 1500 nM, 860 nM and 23 nM.
The like results for `CS(=N)(=O)Cc1cccc(Nc2ncnc(-c3ccc(F)cc3OCc3cc(F)c(F)cc3F)n2)c1` (racemic) [Example 103, (rac)-4-{4-Fluoro-2-[(2,4,5-trifluorobenzyl)oxy]phenyl}-N-{3-[(S-methylsulfonimidoyl)methyl]phenyl}-1,3,5-triazin-2-amine] were, in that order, 1200 nM, 1100 nM and 7 nM.
In the case of `CCOC(=O)N=S(C)(=O)Cc1cccc(Nc2ncnc(-c3cc(F)ccc3OC)n2)c1` (racemic) [Example 20, (rac)-Ethyl [(3-{[4-(5-fluoro-2-methoxyphenyl)-1,3,5-triazin-2-yl]amino}benzyl)(methyl)oxido-λ^6-sulfanylidene]carbamate], the IC50 against CDK2/CycE amounted to 2000 nM; at CDK9/CycT1, 22 nM.
For `COc1cc(Cl)ccc1-c1ncnc(Nc2cccc(CS(C)(=N)=O)c2)n1` (racemic) [Example 12, (rac) 4-(4-Chloro-2-methoxyphenyl)-N-{3-[(S-methylsulfonimidoyl)methyl]phenyl}-1,3,5-triazin-2-amine], the IC50 was determined as 6800 nM against CDK2/CycE and 74 nM against CDK9/CycT1.
The like results for `CCOC(=O)N=S(C)(=O)Cc1cccc(Nc2ncnc(-c3ccc(Cl)cc3OC)n2)c1` (racemic) [Example 11, (rac)-Ethyl [(3-{[4-(4-chloro-2-methoxyphenyl)-1,3,5-triazin-2-yl]amino}benzyl)(methyl)oxido-λ^6-sulfanylidene]carbamate] were, in that order, 5500 nM and 23 nM.
Take `COc1ccc(F)cc1-c1ncnc(Nc2cccc(CS(C)(=N)=O)c2)n1` (racemic) [Example 21, (rac)-4-(5-Fluoro-2-methoxyphenyl)-N-{3-[(S-methylsulfonimidoyl)methyl]phenyl}-1,3,5-triazin-2-amine]: the IC50 against CDK2/CycE came to 3500 nM; on CDK9/CycT1, 56 nM.
For `CS(=N)(=O)Cc1cccc(Nc2ncnc(-c3ccc(F)cc3OCCC(F)(F)F)n2)c1` (racemic) [Example 65, (rac)-4-[4-Fluoro-2-(3,3,3-trifluoropropoxy)phenyl]-N-{3-[(S-methylsulfonimidoyl)methyl]phenyl}-1,3,5-triazin-2-amine] the same measures were 6000 nM and 79 nM.
The like results for `CCOC(=O)N=S(C)(=O)Cc1cccc(Nc2ncnc(-c3cc(F)ccc3OCC3CCOCC3)n2)c1` (racemic) [Example 46, (rac)-Ethyl {[3-({4-[5-fluoro-2-(tetrahydro-2H-pyran-4-ylmethoxy)phenyl]-1,3,5-triazin-2-yl}amino)benzyl](methyl)oxido-λ^6-sulfanylidene}carbamate] were, in that order, 11000 nM and 120 nM.
On to `CS(=N)(=O)Cc1cccc(Nc2ncnc(-c3ccccc3OCc3ccc(Cl)c(Cl)c3)n2)c1` (racemic) [Example 61, (rac)-4-{2-[(3,4-Dichlorobenzyl)oxy]phenyl}-N-{3-[(S-methylsulfonimidoyl)methyl]phenyl}-1,3,5-triazin-2-amine], for which the results for the IC50 at CDK2/CycE and against CDK9/CycT1 were 1200 nM and 15 nM, respectively.
For `[2H]c1c([2H])c([2H])c(C([2H])([2H])Oc2cc(F)ccc2-c2ncnc(Nc3cccc(CS(C)(=N)=O)c3)n2)c([2H])c1[2H]` (racemic) [Example 62, (rac)-4-(4-Fluoro-2-{[(^2H5)phenyl(^2H2)methyl]oxy}phenyl)-N-{3-[(S-methylsulfonimidoyl)methyl]phenyl}-1,3,5-triazin-2-amine] the same measures were 220 nM and 7 nM.
The like results for `CS(=N)(=O)Cc1cccc(Nc2ncnc(-c3cccc4c3OC(F)(F)O4)n2)c1` (racemic) [Example 19, (rac)-4-(2,2-Difluoro-1,3-benzodioxol-4-yl)-N-{3-[(S-methylsulfonimidoyl)methyl]phenyl}-1,3,5-triazin-2-amine] were, in that order, 2100 nM and 59 nM.
For `COc1cc(Cl)ccc1-c1ncnc(Nc2cccc(CS(C)(=N)=O)c2)n1` (single isomer, unassigned) [Example 14, 4-(4-Chloro-2-methoxyphenyl)-N-{3-[(S-methylsulfonimidoyl)methyl]phenyl}-1,3,5-triazin-2-amine], the IC50 at CDK2/CycE is 13000 nM; against CDK9/CycT1, 160 nM.
